What was measured:
[1] = test system: Stichococcus bacillaris SAG 379-1a / CCAP 379/1a; experiment: Algal efficacy testing of dry paint films (modified ASTM 5589, 6-well plates); assay type: cell-based; conditions: 504 h, 3 weeks, visible algal growth vs blank, pass level ≧75%
Procedure: (§1) Sample preparation for antimicrobial testing was performed as follows:
(§2) Slurries containing 33% antimicrobial active ingredient (Zoxamide) were post added to a white, acrylic/silicone based outdoor paint free of biocides to give a total active ingredient concentration of 10000 and 1000 ppm respectively. KATHON™ 893T (100% OIT) and ROCIMA™ 200 (20% DCOIT) were post added to a white, acrylic/silicone based outdoor paint free of biocides to give a total active ingredient concentration of 10000 and 1000 ppm respectively. These paints were then diluted with an antimicrobial free acrylic/silicone based paint and mixed to prepare targeted concentrations of antimicrobial compounds for the testing. The total biocides concentrations tested were 125, 250, 500, 1000, 2000 and 5000 ppm. After biocides addition or dilution, the paints were mixed 90 seconds with the horse power shaker (AXEL 75M3372/Agitateur SO-10MI) until uniformity was achieved. Paints containing different antimicrobial compounds at the same levels were mixed together in order to obtain the desired ratio of antimicrobial compounds. After one day, the paints were applied to Schleicher & Schuell filter paper at 280μm wet film thickness and dried for 3 days at room temperature avoiding direct exposure to sunlight. Square discs (1.6 cm×1.6 cm) were cut out from each panel and were used as the substrate for algal efficacy tests. This sample size allowed for an agar border when the sample disc was placed into the well of the test plate.
(§3) Algal efficacy was tested according to modified ASTM 5589 which is a standard accelerated test method for determining resistance of various coatings (including paints) to algal defacement. To accommodate for high-throughput screening, this method was scaled down from petri dishes to 6-well plates. Bold Modified Basal Freshwater Nutrient Solution was used as growth medium. A single coated filter paper coupon was placed with a pair of sterile forceps at the center of the agar plug (on top) with the painted surface facing upwards. Algal inoculums were prepared by mixing equal concentrations (1×10^6 cfu/ml) and equal volumes of exponentially growing algae cultures.
(§4) Each well that contains a tested coupon was inoculated with 1750 μl of algal suspensions (1×10^6 cfu/ml) making sure that the whole surface (paint film as well as the agar surrounding it) was evenly covered. The plates were incubated at room temp (21° C.-25° C.) with cyclic exposure to light and dark phases, for a period of three weeks.
(§5) At the end of the three week incubation period, the samples were scored for percent inhibition regarding visible algal growth compared to the blank sample (0% inhibition).
(§6) The Synergy Index calculation was performed as follows.
(§7) The SI is calculated based on F. C. Kull et.
(§8) SI value of <1 in the formula indicates a synergism of the blended biocides exists.
(§9) The minimal targeted inhibition was set at 75%, meaning a coupon with at least 75% algal growth inhibition was considered as a pass.

[2] = test system: Chlorella sp. ATCC 7516; experiment: as above; assay type: cell-based; conditions: 504 h, 3 weeks, visible algal growth vs blank, pass level ≧75%; for inhibition at 1000 ppm: total conc 1000 ppm in paint
Procedure: as §1, §2, §3, §4, §5, §6, §7, §8, §9

SMILES | inhibition at 5000 ppm ([1]; total conc 5000 ppm in paint) [%] | inhibition at 5000 ppm ([2]; total conc 5000 ppm in paint) [%] | inhibition at 1000 ppm [2] [%] | inhibition at 1000 ppm ([1]; total conc 1000 ppm in paint) [%]
CCC(C)(NC(=O)c1cc(Cl)c(C)c(Cl)c1)C(=O)CCl (centres unmarked) [Zoxamide] | 45 | 60 |  | 
CCCCCCCCn1sccc1=O [OIT, 2-n-octyl-4-isothiazolin-3-one] |  |  | 95 | 
CCCCCCCCn1sc(Cl)c(Cl)c1=O [DCOIT, 4,5-dichloro-2-n-octyl-4-isothiazolin-3-one] |  |  | 85 | 85

— patent publication US20150296786A1, “SYNERGISTIC COMBINATION OF A ZOXAMIDE COMPOUND AND ONE OF DCOIT OR OIT FOR DRY FILM PROTECTION” (ROHM AND HAAS COMPANY, priority 2012, published 2015)
